Results from patent US12427192B2, “Water soluble adjuvant and composition containing same” (Sumitomo Pharma Co., Ltd., priority 2019, dated 2025).

Experiments:
[1] = test system: HLA-A*02:01 transgenic mouse; experiment: Test 17: in vivo adjuvant activity, liposome formulation 2, IFNγ ELISPOT; details: added to cocktail vaccine 1 (liposome formulation 2); 0.4 nmol per body, twice; FIG. 20 and 21
Procedure: Evaluation of In Vivo Adjuvant Activity in HLA-A*02:01 Transgenic Mouse
The in vivo adjuvant activity of the compound of Example 1 was evaluated in the following procedure.
To a vaccine (liposome formulation 2) comprising Compound of formula 4 prepared in Reference example 8 and Peptide SEQ ID No. 3 prepared in Reference example 3 (hereinafter, referred to as “cocktail vaccine 1”) was added the compound prepared in Example 1 to prepare a vaccine. The vaccine was administered to a HLA-A*02:01 transgenic mouse, and the adjuvant activity of the vaccine was evaluated by the method of testing antigen-specific CTL induction.
For example, the above liposome formulation 2 was prepared as follows. 42.66 mg of sphingomyelin and 15.47 mg of cholesterol were dissolved in t-butyl alcohol, and the mixture was lyophilized. […]
Cocktail vaccine 1 was injected to mice intradermally at the tail base area in an amount for administering 500 μg of Compound of formula 4 per body and 375 μg of Peptide SEQ ID No. 3 per body. […] Then, after removal of the supernatant from the wells, stained spots on the ELISPOT plate were counted.

[2] = test system: HLA-A*02:01 transgenic mouse; experiment: Test 6: in vivo adjuvant activity, vaccine c (Peptide SEQ ID No. 6), IFNγ ELISPOT; details: added to vaccine c; 0.4 nmol per body, twice; FIG. 3
Procedure: Test 6 Evaluation of In Vivo Adjuvant Activity in HLA-A*02:01 Transgenic Mouse
The in vivo adjuvant activity of the compound of Example 1 was evaluated in the following procedure. To a vaccine prepared by mixing Peptide SEQ ID No. 6 prepared in Reference example 6 with Montanide ISA 51 VG (hereinafter, referred to as “vaccine c”) was added the compound prepared in Example 1 to prepare a vaccine. The vaccine was administered to a HLA-A*02:01 transgenic mouse, and the adjuvant activity of the vaccine was evaluated by the method of testing antigen-specific CTL induction. The GLYDGMEHL in Peptide SEQ ID No. 6 corresponds to an antigen peptide derived from an HLA-A*02:01-restricted MAGE-A10 protein.
The character for inducing CTLs specific to the antigen peptide (SEQ ID No. 6) by vaccine c was evaluated by measuring whether IFNγ can be produced upon stimulation of splenocytes from the mouse with the peptide. In addition, the character for exerting in vivo adjuvant activity by the compound in Example 1 was evaluated by comparing the number of CTLs induced by vaccine c and the number of CTLs induced by the vaccine prepared by adding the compound prepared in Example 1 to vaccine c, and checking presence or absence of the increase on the number.
Specifically, Peptide of SEQ ID No. 6 was dissolved in DMSO, and then diluted with water for injection to concentrations of 0.1 mg/mL. […]

CCCCCNc1nc(N)nc(C)c1Cc1ccc(CN(C)CCOCCOCCOCCOCCO)cc1OC [Example 1, 1-(4-{[2-amino-4-methyl-6-(pentylamino)pyrimidin-5-yl]methyl}-3-methoxyphenyl)-2-methyl-5,8,11,14-tetraoxa-2-azahexadecan-16-ol·trifluoroacetate]
CTL counts responsive to Peptide SEQ ID No. 1 or SEQ ID No. 4 compared with adding no compound [1]: more
CTL counts responsive to Peptide SEQ ID No. 6 compared with adding no compound [2]: more
